SMILES strings stand for the structures. pKi: −log10 of the molar value.

Broadly, the pKi is the negative decadic logarithm of the Ki, by convention in mol/L. A low value points to a high Ki.

The target of this test is cloned human glucagon receptor (Homo sapiens, UniProt P47871). Nature of the test: Glucagon Receptor (hGlucR) Binding Assay.
cloned human glucagon receptor, sequence (P47871 26-477): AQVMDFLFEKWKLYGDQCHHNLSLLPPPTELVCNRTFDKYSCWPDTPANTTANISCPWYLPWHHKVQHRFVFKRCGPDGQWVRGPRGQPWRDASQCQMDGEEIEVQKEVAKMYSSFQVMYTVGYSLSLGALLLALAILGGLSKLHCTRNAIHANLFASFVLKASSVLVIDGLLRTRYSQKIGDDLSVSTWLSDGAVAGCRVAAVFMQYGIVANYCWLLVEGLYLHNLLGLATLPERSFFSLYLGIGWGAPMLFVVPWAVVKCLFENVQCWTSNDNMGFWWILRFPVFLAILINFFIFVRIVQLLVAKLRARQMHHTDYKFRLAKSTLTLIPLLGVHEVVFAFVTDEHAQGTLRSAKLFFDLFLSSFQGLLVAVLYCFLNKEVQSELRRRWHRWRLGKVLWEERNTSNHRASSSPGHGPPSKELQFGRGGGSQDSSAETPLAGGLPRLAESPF

Method: This plasmid DNA is transfected into 293 HEK cells and selected with 200 μg/mL Hygromycin.
Crude plasma membranes are prepared using cells from suspension culture. The cells are lysed on ice in hypotonic buffer containing 25 mM Tris HCL, pH 7.5, 1 mM MgCl2, DNAse1, 20 u/mL, and Roche Complete Inhibitors-without EDTA. The cell suspension is homogenized with a glass dounce homogenizer using a Teflon pestle for 25 strokes. The homogenate is centrifuged at 4 degrees C. at 1800×g for 15 mins. The supernate is collected and the pellet is resuspended in hypotonic buffer and rehomogenized. The mixture is centrifuged at 1800×g for 15 mins. The second supernate is combined with the first supernate. The combined supernates are recentrifuged at 1800×g for 15 mins to clarify. The clarified supernate is transferred to high speed tubes and centrifuged at 25000×g for 30 minutes at 4 degrees C. The membrane pellet is resuspended in homogenization buffer and stored as frozen aliquots at −80 degree C. freezer until needed.
The specific activity is 2200 Ci/mmol.
The binding buffer contains 25 mM Hepes, pH 7.4, 2.5 mM CaCl2, 1 mM MgCl2, 0.1% fatty acid free BSA, (ICN), 0.003% tween-20, and Roche Complete Inhibitors without EDTA. […] Test compounds are dissolved in DMSO and serially diluted in DMSO. […] Plates are read with a MicroBeta after 14 hours of settling time at room temp. […]

Molecule `CC(C)CC(Nc1ccc(-c2ccc(C(C)(C)C)cc2)cc1)c1ccc(C(=O)NCCC(=O)O)cc1` (centres unmarked) gave a pKi of 7.40.

Molecule `CCCCCC(Nc1ccc(-c2ccc(C#N)cc2)cc1)c1ccc(C(=O)NCCC(=O)O)cc1` (centres unmarked) showed a pKi of 6.76.

The values are drawn from patent US7696248B2 (Eli Lilly and Company, priority 2005, dated 2010).
